# Reference: patent US9814787B2, “Luciferin amides” (University of Massachusetts, priority 2013, dated 2017)
# What was measured:
# pig liver esterase (PLE) = test: Treatment of luciferin amides with pig liver esterase, then R218K luciferase, bioluminescence; type: biochemical; conditions: 50 μM luciferin amide, PLE and PLE 1:10, one hour at room temperature
# Protocol: (§1) Three luciferin amides (50 μM), i.e., Compounds 2, 9, and 25, were treated with a buffer alone, a buffer containing FAAH, a buffer containing FAAH 1:10 (i.e., a ten-fold dilution of FAAH), a buffer containing pig liver esterase (PLE), or a buffer containing PLE 1:10 (i.e., a ten-fold dilution of PLE). After one hour at room temperature, R218K luciferase was added at a concentration of 3 μg/mL and bioluminescence was detected on a Turner Veritas.
# FAAH [1] = target: T1, FAAH (Homo sapiens, UniProt O00519); test: In vitro FAAH assay: luciferin amide treated with recombinant FAAH, then R218K luciferase, bioluminescence; type: biochemical; conditions: 50 μM luciferin amide; for effect of ten-fold dilution of FAAH on bioluminescent signal: FAAH vs FAAH 1:10, one hour at room temperature; for increase in bioluminescence signal on addition of FAAH versus buffer: 10 minutes at room temperature, R218K luciferase 3 μg/mL
# T1 construct: purchased Cayman Chemical
# T1 sequence (O00519 1-579): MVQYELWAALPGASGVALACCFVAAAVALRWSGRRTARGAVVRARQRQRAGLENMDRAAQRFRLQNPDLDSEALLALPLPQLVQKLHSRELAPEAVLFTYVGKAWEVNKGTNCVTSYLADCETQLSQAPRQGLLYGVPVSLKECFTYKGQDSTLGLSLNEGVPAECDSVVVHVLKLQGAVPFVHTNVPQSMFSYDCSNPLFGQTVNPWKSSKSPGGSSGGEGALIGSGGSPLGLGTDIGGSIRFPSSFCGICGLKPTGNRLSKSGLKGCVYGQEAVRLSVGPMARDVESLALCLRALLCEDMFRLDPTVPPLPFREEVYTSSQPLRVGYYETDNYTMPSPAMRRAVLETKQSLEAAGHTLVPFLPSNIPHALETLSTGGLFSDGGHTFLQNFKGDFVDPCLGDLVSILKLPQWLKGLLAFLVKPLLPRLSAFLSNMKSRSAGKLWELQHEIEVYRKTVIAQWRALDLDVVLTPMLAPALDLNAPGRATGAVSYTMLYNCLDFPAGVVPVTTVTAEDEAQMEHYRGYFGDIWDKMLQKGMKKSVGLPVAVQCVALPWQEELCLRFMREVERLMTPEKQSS
# Protocol: Recombinant FAAH, FAAH assay buffer, and FAAH inhibitors URB-597, PF-750, and PF-3845 were purchased from Cayman Chemical.
# Bioluminescence assays were performed in either a Turner Veritas luminometer or a Xenogen IVIS-100 imaging system. For Veritas experiments, white 96-well plates were used (Costar 3912). For IVIS experiments, black 96-well plates were used (Costar 3915).
# (§2) Luciferin amides (50 μM) were treated with FAAH and FAAH buffer (Cayman Chemical) in the presence or absence of 50 μM FAAH inhibitor URB-597 or 50 μM luciferase inhibitor 2-(4′-methoxyphenyl)benzothiazole. After 10 minutes at room temperature, R218K mutant firefly luciferase was added at a concentration of 3 μg/mL and bioluminescence was detected on a Turner Veritas luminometer.
# (§3) Four luciferin amides (50 μM), i.e., Compounds 1, 9, 10, and 25, were treated with a buffer alone, a buffer containing FAAH, a buffer containing FAAH+50 μM URB-597 (i.e., a FAAH inhibitor), or a buffer containing FAAH+50 μM luciferase inhibitor 2-(4′-methoxyphenyl)benzothiazole. After 10 minutes at room temperature, R218K luciferase was added at a concentration of 3 μg/mL and bioluminescence was detected on a Turner Veritas.
# as §1
# [2] = target: R218K mutant firefly luciferase (Photinus pyralis, UniProt P08659, R218K); test: In vitro FAAH assay in presence of luciferase inhibitor 2-(4′-methoxyphenyl)benzothiazole; type: biochemical; conditions: 50 μM luciferase inhibitor, 50 μM luciferin amide
# Protocol: as §2
# as §3, with “Veritas. […] These bioluminescence signals were inhibited by more than 100-fold by treatment with the FAAH inhibitor URB-597.” for “Veritas.”
# [3] = system: FVB mice expressing luciferase in brain tissue; test: In vivo bioluminescence imaging in brains of FVB mice injected with AAV9-luc+ in the striatum
# Protocol: (§4) FVB mice were injected with AAV9-luc+ in the brain striatum. Bioluminescence assays were performed approximately nine months after AAV injection. Each luciferin amide was diluted into PBS to the indicated concentration from a 50 mM DMSO stock solution and filtered (0.22 μm) prior to intraperitoneally injection (0.1 mL per mouse). Mice were anesthetized with isoflurane (2% in 1 L/min oxygen) and images acquired on a Xenogen IVIS 100 imaging system and analyzed with Living Image software.
# Certain luciferin amides described herein were tested to determine whether they would image well in live mice. For these studies, FVB mice were injected with adeno-associated virus 9 (AAV9)-luciferase constructs into the brain striatum.
# Bioluminescence imaging (BLI) in the brain is more challenging than imaging in the rest of the organism, in part because a luciferase substrate (i.e., a luciferin) must cross the blood-brain barrier. Therefore, the ability of a synthetic luciferin (i.e., Compound 9's corresponding luciferin (CycLuc1)) to allow bioluminescence imaging in these mice, as compared to the native firefly luciferase substrate (i.e., D-luciferin) was first tested. Specifically, each substrate was injected intraperitoneally (IP) in PBS at a volume of 0.1 mL, D-luciferin being at a concentration of 100 mM and CycLuc1 being at a concentration of 5 mM. […] CycLuc1 was then injected at a 320-fold lower dose (0.06 mL of 0.5 mM) than D-luciferin.
# Specifically, Compound 9 (i.e., CycLuc1 amide) was injected at 0.5 mM in 0.5% DMSO/PBS (0.06 mL).
# In this figure, mice in the top row were treated with luciferin amides in the amounts indicated in the figure, and the mice in the bottom row were the same mice that were imaged one day later using a standard dose of D-luciferin.
# FAAH [4] = target: T2, FAAH (Mus musculus, UniProt O08914); test: In vivo FAAH inhibition assay with PF-3845; design: species or system mice
# T2 construct: metabolized into CycLuc1 by endogenous FAAH activity; from tissue; host or cells: brain (striatum) of live FVB mice expressing AAV9-delivered luciferase
# T2 sequence (O08914 1-579): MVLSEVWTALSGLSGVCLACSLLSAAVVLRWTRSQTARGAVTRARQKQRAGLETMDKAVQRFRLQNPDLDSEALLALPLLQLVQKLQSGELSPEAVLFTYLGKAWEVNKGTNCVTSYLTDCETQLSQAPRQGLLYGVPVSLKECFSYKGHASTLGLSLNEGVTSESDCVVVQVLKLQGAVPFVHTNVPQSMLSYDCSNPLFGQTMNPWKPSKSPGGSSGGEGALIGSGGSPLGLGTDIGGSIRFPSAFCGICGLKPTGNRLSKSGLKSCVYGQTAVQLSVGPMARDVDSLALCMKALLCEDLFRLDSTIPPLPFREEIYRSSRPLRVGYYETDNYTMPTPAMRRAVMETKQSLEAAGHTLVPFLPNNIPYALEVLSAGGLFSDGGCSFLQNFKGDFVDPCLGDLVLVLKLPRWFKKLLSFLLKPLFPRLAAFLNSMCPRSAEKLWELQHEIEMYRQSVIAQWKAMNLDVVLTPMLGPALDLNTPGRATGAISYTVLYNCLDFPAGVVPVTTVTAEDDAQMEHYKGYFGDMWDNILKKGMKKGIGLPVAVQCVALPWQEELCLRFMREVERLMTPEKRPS
# Protocol: as §4
# Mice were injected intraperitoneally with 1 mg/mL of a specific FAAH inhibitor PF-3845 dissolved in 18:1:1 PBS:ethanol:emulphor (0.1 mL), or with an equal volume of 18:1:1 PBS:ethanol:emulphor control vehicle. Thirty minutes after injection, the mice were imaged as described above.
# FAAH is highly expressed in most tissues, particularly in the brain. To determine whether the luciferin amides are cleaved exclusively by FAAH in the brain tissue, eight FVB mice expressing AAV9-luciferase in the striatum were divided into two groups: (1) four mice were injected IP with 1 mg/mL of a specific FAAH inhibitor PF-3845 dissolved in 18:1:1 PBS:ethanol:emulphor (0.1 mL), and (2) four mice were treated with an equal volume of 18:1:1 PBS:ethanol:emulphor control vehicle without PF-3845. After 30 minutes, one mouse from each group was IP injected with 5 mM CycLuc1 (i.e., Compound 9's corresponding luciferin) in PBS (0.1 mL), and three were injected with 0.1 mM Compound 5 in 0.2% DMSO/PBS (0.1 mL). The mice were imaged 10 minutes after substrate injection. Mice in the right panel were group (1) (i.e., treated with a FAAH inhibitor) and mice in the left panel were from group (2) (i.e., without being treated with a FAAH inhibitor).
# [5] = 0.06 mL of 0.5 mM in 0.5% DMSO/PBS
# Sequence of R218K mutant firefly luciferase (P08659 whole entry R218K): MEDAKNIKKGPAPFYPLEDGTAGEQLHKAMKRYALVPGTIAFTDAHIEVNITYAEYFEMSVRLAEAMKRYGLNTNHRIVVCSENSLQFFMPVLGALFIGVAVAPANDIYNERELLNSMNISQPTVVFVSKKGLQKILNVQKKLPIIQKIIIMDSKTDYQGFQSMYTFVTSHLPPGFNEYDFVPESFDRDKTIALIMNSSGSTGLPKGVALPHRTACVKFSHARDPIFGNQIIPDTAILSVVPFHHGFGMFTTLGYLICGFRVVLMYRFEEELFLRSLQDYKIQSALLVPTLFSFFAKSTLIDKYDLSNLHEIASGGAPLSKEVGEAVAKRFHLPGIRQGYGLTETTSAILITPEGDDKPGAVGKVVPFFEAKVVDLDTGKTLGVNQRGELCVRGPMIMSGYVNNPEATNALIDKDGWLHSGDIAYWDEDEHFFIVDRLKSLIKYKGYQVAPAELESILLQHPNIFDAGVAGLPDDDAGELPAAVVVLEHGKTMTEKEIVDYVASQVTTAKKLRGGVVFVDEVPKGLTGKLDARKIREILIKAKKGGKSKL
"total photon flux (FAAH [4]; 5 mM in PBS (0.1 mL) IP, groups (1) PF-3845 and (2) vehicle, 10 minutes after substrate)",change of light output by FAAH inhibitor PF-3845 (group 1 vs group 2) (FAAH [4]; PF-3845 1 mg/mL (0.1 mL) IP 30 minutes before substrate),SMILES,bioluminescence signal after treatment with PLE (pig liver esterase (PLE)),effect of ten-fold dilution of FAAH on bioluminescent signal (FAAH [1]),inhibition of the signal by luciferase inhibitor 2-(4′-methoxyphenyl)benzothiazole [2],increase in bioluminescence signal on addition of FAAH versus buffer (FAAH [1]),"light emission relative to an equivalent dose of CycLuc1 [3, 5]","light emission relative to the 5 mM CycLuc1 dose [3, 5]","brain bioluminescence signal relative to D-luciferin (0.1 mL of 100 mM) ([3]; 0.06 mL of 0.5 mM, 320-fold lower dose)","light emission in brains of live mice (qualitative) ([3]; mouse, in vivo)",persistence of signal relative to D-luciferin ([3]; 0.06 mL of 0.5 mM),"duration of signal ([3]; IP, 0.1 mL of 5 mM)","time of peak signal ([3]; IP, 0.1 mL of 5 mM)","brain bioluminescence signal relative to D-luciferin (0.1 mL of 100 mM) ([3]; IP, 0.1 mL of 5 mM in PBS, 20-fold lower dose)"
,,"CN(C)c1ccc2nc(C3=N[C@@H](C(N)=O)CS3)sc2c1 [Compound 2, (S)-2-(6-(dimethylamino)benzo[d]thiazol-2-yl)-4,5-dihydrothiazole-4-carboxamide]",failed to elicit a bioluminescence signal,corresponding reduction in the intensity of the bioluminescent signal,,,,,,,,,,
,,"NC(=O)[C@H]1CSC(c2nc3cc4c(cc3s2)NCC4)=N1 [Compound 9, (S)-4,5-dihydro-2-(6,7-dihydro-5H-thiazolo[4,5-f]indol-2-yl)thiazole-4-carboxamide]",failed to elicit a bioluminescence signal,corresponding reduction in the intensity of the bioluminescent signal,2.3 fold,8972 fold,exceeded that obtained from an equivalent dose of CycLuc1 itself,nearly equaling to the light emission obtained from the 5 mM CycLuc1 dose,over an order of magnitude greater,,,,,
,,"NC(=O)[C@H]1CSC(c2nc3ccc(O)cc3s2)=N1 [Compound 25, (S)-4,5-dihydro-2-(6-hydroxybenzothiazol-2-yl)thiazole-4-carboxamide]",failed to elicit a bioluminescence signal,corresponding reduction in the intensity of the bioluminescent signal,14.5 fold,269 fold,,,,relatively weak light emission,,,,
9×10^6 p/s,unchanged,"O=C(O)[C@H]1CSC(c2nc3cc4c(cc3s2)NCC4)=N1 [CycLuc1, reference compound]",,,,,,,,,persisted for a longer time,over 2 hours,~10 min,an order of magnitude higher signal than D-luciferin
